Measured values: US20170334899A1, “AMINO-SUBSTITUTED ISOTHIAZOLES” (Bayer Pharma Aktiengesellschaft, priority 2014, published 2017)

Tests used:
[1] = tested on: human cervical tumor cell line HeLa (ATCC CCL-2); assay: SAC-Formation - Paclitaxel-Induced Assay; assay type: cell-based; conditions: Homo sapiens, HeLa, 24 h, HeLa cells, paclitaxel 0.05 μM, test range 0.005 μM-20 μM, read-out: IC50 [mol/l] SAC-Formation - Paclitaxel-Induced Assay
Method in brief: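 HeLa cells incubated overnight at 37° C, then given paclitaxel (0.05 μM final) plus test compound (0.005–20 μM, 0.5% DMSO) together for 24 h at 37° C. Fixed cells stained for phospho-histone H3 Ser10 (mitotic cells) and Hoechst 33342 (cell count); imaging-derived mitotic index fitted by four-parameter Hill equation.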

CDK2/CycE = target: T1, CDK2/CycE (Homo sapiens, UniProt P24941); assay: CDK2/CycE kinase assay (TR-FRET); assay type: biochemical; conditions: avg, read-out: CDK2 avg (IC50 [mol/l])
T1 construct: GST; purchased ProQinase GmbH (Freiburg, Germany); host or cells: insect cells (Sf9)
Method in brief: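 GST-tagged human CDK2 and CycE from Sf9 cells, preincubated 15 min with compound, then 25 min at 22° C. with 10 μM ATP and 0.75 μM biotinylated Rb-derived peptide (final). Phospho-substrate read by TR-FRET (anti-pRB pSer807/pSer811, Eu anti-mouse IgG, streptavidin-XL665), 665/620 nm ratio, normalised to no-inhibitor and no-enzyme controls.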

Row | IC50 [1] [nM] | IC50 (CDK2/CycE) [nM] | SMILES
1 | 120 | ≥ 20000 | Cc1nsc(Nc2cnc(C(F)(F)F)cn2)c1C(=O)Nc1ccc(OCCCN(C)CC(F)(F)F)nc1 [Example 354, 3-methyl-N-(6-{3-[methyl(2,2,2-trifluoroethyl)amino]propoxy}pyridin-3-yl)-5-{[5-(trifluoromethyl)pyrazin-2-yl]amino}-1,2-thiazole-4-carboxamide]
2 | 61 | ≥ 20000 | Cc1nsc(Nc2cnc(C(F)(F)F)cn2)c1C(=O)Nc1ccc(F)c(OCC2CCCN(CCF)C2)c1 (centres unmarked) [Example 336, N-(4-fluoro-3-{[1-(2-fluoroethyl)piperidin-3-yl]methoxy}phenyl)-3-methyl-5-{[5-(trifluoromethyl)pyrazin-2-yl]amino}-1,2-thiazole-4-carboxamide]
3 | 520 | ≥ 20000 | Cc1nsc(Nc2cnc(C(F)(F)F)cn2)c1C(=O)Nc1ccc(OCCCN(C)CCF)nc1 [Example 352, N-(6-{3-[(2-fluoroethyl)(methyl)amino]propoxy}pyridin-3-yl)-3-methyl-5-{[5-(trifluoromethyl)pyrazin-2-yl]amino}-1,2-thiazole-4-carboxamide]
4 | 25 | ≥ 20000 | Cc1nsc(Nc2cnc(C(F)(F)F)cn2)c1C(=O)Nc1ccc(OC2CCCN(CC(F)F)C2)nc1 (centres unmarked) [Example 330, N-(6-{[1-(2,2-difluoroethyl)piperidin-3-yl]oxy}pyridin-3-yl)-3-methyl-5-{[5-(trifluoromethyl)pyrazin-2-yl]amino}-1,2-thiazole-4-carboxamide]
5 | 20000 | ≥ 20000 | Cc1nsc(Nc2ccc(C#N)cn2)c1C(=O)Nc1ccc(OC2CCNCC2)nc1 [Example 28, 5-[(5-Cyanopyridin-2-yl)amino]-3-methyl-N-[6-(piperidin-4-yloxy)pyridin-3-yl]-1,2-thiazole-4-carboxannide]
6 | 31 | > 20000 | CCCN1CC[C@H](Oc2ccc(NC(=O)c3c(C)nsc3Nc3cnc(C(F)(F)F)cn3)cn2)[C@@H](F)C1 [Example 370, N-(6-{[(3S,4S)-3-fluoro-1-propylpiperidin-4-yl]oxy}pyridin-3-yl)-3-methyl-5-{[5-(trifluoromethyl)pyrazin-2-yl]amino}-1,2-thiazole-4-carboxamide]
7 | 210 | ≥ 20000 | Cc1nsc(Nc2cnc(C(F)(F)F)cn2)c1C(=O)Nc1ccc(OCCN(C)CCC(F)(F)F)nc1 [Example 351, 3-methyl-N-(6-{2-[methyl(3,3,3-trifluoropropyl)amino]ethoxy}pyridin-3-yl)-5-{[5-(trifluoromethyl)pyrazin-2-yl]amino}-1,2-thiazole-4-carboxamide]
8 | 80 | > 20000 | Cc1nsc(Nc2cnc(C(F)(F)F)cn2)c1C(=O)Nc1ccc(O[C@H]2CCCN(CC(F)F)C2)nc1 [Example 388, N-(6-{[(3S)-1-(2,2-difluoroethyl)piperidin-3-yl]oxy}pyridin-3-yl)-3-methyl-5-{[5-(trifluoromethyl)pyrazin-2-yl]amino}-1,2-thiazole-4-carboxamide]
9 | 99 | > 20000 | Cc1nsc(Nc2cnc(C(F)(F)F)cn2)c1C(=O)Nc1ccc(C2CCN(CC(F)F)CC2)nc1 [Example 357, N-{6-[1-(2,2-difluoroethyl)piperidin-4 yl]pyridin-3-yl}-3-methyl-5-{[5-(trifluoromethyl)pyrazin-2-yl]amino}-1,2-thiazole-4-carboxamide]
10 | 20000 | ≥ 20000 | Cc1nsc(Nc2ccc(C#N)cn2)c1C(=O)Nc1ccc(OC2CCN(CCF)CC2)nc1 [Example 29, 5-[(5-Cyanopyridin-2-yl)amino]-N-(6-{[1-(2-fluoroethyl)piperidin-4-yl]oxy}pyridin-3-yl)-3-methyl-1,2-thiazole-4-carboxamide]
11 | 51 | > 20000 | CCCN1CC[C@@H](Oc2ccc(NC(=O)c3c(C)nsc3Nc3cnc(C(F)(F)F)cn3)cn2)[C@H](F)C1 [Example 371, N-(6-{[(3R,4R)-3-fluoro-1-propylpiperidin-4-yl]oxy}pyridin-3-yl)-3-methyl-5-{[5-(trifluoromethyl)pyrazin-2-yl]amino}-1,2-thiazole-4-carboxamide]
12 | 57 | > 20000 | Cc1nsc(Nc2cnc(C(F)(F)F)cn2)c1C(=O)Nc1ccc(O[C@@H]2CCCN(CC(F)(F)F)C2)nc1 [Example 386, 3-methyl-N-(6-{[(3R)-1-(2,2,2-trifluoroethyl)piperidin-3-yl]oxy}pyridin-3-yl)-5-{[5-(trifluoromethyl)pyrazin-2-yl]amino}-1,2-thiazole-4-carboxamide]
13 | 210 | > 20000 | Cc1nsc(Nc2cnc(C(F)(F)F)cn2)c1C(=O)Nc1ccc(N2CCN(CCC(F)(F)F)CC2)cn1 [Example 374, 3-methyl-5-{[5-(trifluoromethyl)pyrazin-2-yl]amino}-N-{5-[4-(3,3,3-trifluoropropyl)piperazin-1-yl]pyridin-2-yl}-1,2-thiazole-4-carboxamide]
14 | 110 | > 20000 | Cc1nsc(Nc2cnc(C(F)(F)F)cn2)c1C(=O)Nc1ccc(O[C@H]2CCCN(CCC(F)(F)F)C2)nc1 [Example 390, 3-methyl-5-{[5-(trifluoromethyl)pyrazin-2-yl]amino}-N-(6-{[(3S)-1-(3,3,3-trifluoropropyl)piperidin-3-yl]oxy}pyridin-3-yl)-1,2-thiazole-4-carboxamide]
15 | 420 | ≥ 20000 | Cc1nsc(Nc2ccc(C#N)cn2)c1C(=O)Nc1ccc(OC2CCN(CC(F)(F)F)CC2)nc1 [Example 30, 5-[(5-Cyanopyridin-2-yl)amino]-3-methyl-N-(6-{[1-(2,2,2-trifluoroethyl)piperidin-4-yl]oxy}pyridin-3-yl)-1,2-thiazole-4-carboxamide]
16 | 75 | > 20000 | Cc1nsc(Nc2cnc(C(F)(F)F)cn2)c1C(=O)Nc1ccc(N2CCN(CC(F)(F)F)CC2)nc1 [Example 360, 3-methyl-N-{6-[4-(2,2,2-trifluoroethyl)piperazin-1-yl]pyridin-3-yl}-5-{[5-(trifluoromethyl)pyrazin-2-yl]amino}-1,2-thiazole-4-carboxamide]
17 | 190 | > 20000 | Cc1nsc(Nc2cnc(C(F)(F)F)cn2)c1C(=O)Nc1ccc(N2CCN(CC(F)(F)F)CC2)cn1 [Example 373, 3-methyl-N-{5-[4-(2,2,2-trifluoroethyl)piperazin-1-yl]pyridin-2-yl}-5-{[5-(trifluoromethyl)pyrazin-2-yl]amino}-1,2-thiazole-4-carboxamide]
18 | 27 | > 20000 | Cc1nsc(Nc2cnc(C(F)(F)F)cn2)c1C(=O)Nc1ccc(O[C@H]2CCN(CC(F)(F)F)C2)nc1 [Example 383, 3-methyl-N-(6-{[(3S)-1-(2,2,2-trifluoroethyl)pyrrolidin-3-yl]oxy}pyridin-3-yl)-5-{[5-(trifluoromethyl)pyrazin-2-yl]amino}-1,2-thiazole-4-carboxamide]
19 | 98 | > 20000 | Cc1nsc(Nc2cnc(C(F)(F)F)cn2)c1C(=O)Nc1ccc(O[C@@H]2CCN(CC(F)F)C[C@H]2F)nc1 [Example 366, N-(6-{[(3R,4R)-1-(2,2-difluoroethyl)-3-fluoropiperidin-4-yl]oxy}pyridin-3-yl)-3-methyl-5-{[5-(trifluoromethyl)pyrazin-2-yl]amino}-1,2-thiazole-4-carboxamide]
20 | 35 | > 20000 | Cc1nsc(Nc2cnc(C(F)(F)F)cn2)c1C(=O)Nc1ccc(F)c(OC[C@@H]2CCN(CCC(F)(F)F)C2)c1 [Example 340, N-(4-fluoro-3-{[(3R)-1-(3,3,3-trifluoropropyl)pyrrolidin-3-yl]methoxy}phenyl)-3-methyl-5-{[5-(trifluoromethyl)pyrazin-2-yl]amino}-1,2-thiazole-4-carboxamide]
21 | 330 | > 20000 | Cc1nsc(Nc2cnc(C(F)(F)F)cn2)c1C(=O)Nc1ccc(N2CCN(CC(F)F)CC2)cn1 [Example 372, N-{5-[4-(2,2-difluoroethyl)piperazin-1-yl]pyridin-2-yl}-3-methyl-5-{[5-(trifluoromethyl)pyrazin-2-yl]amino}-1,2-thiazole-4-carboxamide]
22 | 130 | > 20000 | Cc1nsc(Nc2cnc(C(F)(F)F)cn2)c1C(=O)Nc1ccc(O[C@@H]2CCCN(CCC(F)(F)F)C2)nc1 [Example 387, 3-methyl-5-{[5-(trifluoromethyl)pyrazin-2-yl]amino}-N-(6-{[(3R)-1-(3,3,3-trifluoropropyl)piperidin-3-yl]oxy}pyridin-3-yl)-1,2-thiazole-4-carboxamide]
23 | 53 | ≥ 20000 | Cc1nsc(Nc2cnc(C(F)(F)F)cn2)c1C(=O)Nc1ccc(OCC2CCCN(CCF)C2)nc1 (centres unmarked) [Example 325, N-(6-{[1-(2-fluoroethyl)piperidin-3-yl]methoxy}pyridin-3-yl)-3-methyl-5-{[5-(trifluoromethyl)pyrazin-2-yl]amino}-1,2-thiazole-4-carboxamide]
24 | – | > 20000 | Cc1nsc(Nc2cnc(C(F)(F)F)cn2)c1C(=O)Nc1ccc(F)c(OC[C@H]2CCN(CCC(F)(F)F)C2)c1 [Example 399, N-(4-fluoro-3-{[(3S)-1-(3,3,3-trifluoropropyl)pyrrolidin-3-yl]methoxy}phenyl)-3-methyl-5-{[5-(trifluoromethyl)pyrazin-2-yl]amino}-1,2-thiazole-4-carboxamide]
